Source: patent US11541050B2, “Pyrimidine derivatives for the treatment of viral infections” (JANSSEN SCIENCES IRELAND UC, priority 2011, dated 2023)

How the values were obtained:
[1] = system: human TLR7 mutant sequence comprising a deletion in the second leucine-rich repeat; assay: TLR7 cellular NFκB-luc reporter assay, mutant TLR7 with deletion in the second leucine-rich repeat; format: cell-based; design: unit not given here; conditions: lowest effective concentration, TLR7 mutant with deletion in second leucine-rich repeat
How it was run: (§1)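 HEK293 cells transiently co-transfected with CMV-driven mutant TLR7 or TLR8 plasmid plus NFκB-luc reporter, cultured 48 h at 37 °C, then exposed to compound for 6 h at 37 °C, 5% CO2. Luciferase luminescence measured; dose-response curves from quadruplicates.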

[2] = system: HCV replicon in Huh-7 luc/neo cells; assay: Suppression of HCV replicon replication by conditioned media from compound-treated PBMC; format: cell-based, HCV type 1 b; conditions: Hepatitis C virus, Huh-7; read-out: PBMC-HUH7_EC50
How it was run: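 Readout is firefly luciferase from an HCV genotype 1b NS3-NS5B bicistronic replicon in Huh-7 cells, measured 24 h after adding conditioned medium. That medium came from overnight culture of compound-treated PBMC (2×10^5/well, human AB serum, at least two donors). Interferon α-2a was the reference.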

[3] = system: human TLR8 mutant sequence comprising a deletion in the second leucine-rich repeat; assay: TLR8 cellular NFκB-luc reporter assay, mutant TLR8 with deletion in the second leucine-rich repeat; format: cell-based; design: unit not given here; conditions: lowest effective concentration, TLR8 mutant with deletion in second leucine-rich repeat
How it was run: as §1

[4] = target: T1, human TLR8 (wild type sequence) (Homo sapiens, UniProt Q9NR97); assay: TLR8 cellular NFκB-luc reporter assay, wild type TLR8; format: cell-based; design: unit not given here; conditions: lowest effective concentration, wild type TLR8 (compounds 1-73)
T1 construct: expressed in transfected cells; host or cells: HEK293
T1 sequence (Q9NR97 27-1041): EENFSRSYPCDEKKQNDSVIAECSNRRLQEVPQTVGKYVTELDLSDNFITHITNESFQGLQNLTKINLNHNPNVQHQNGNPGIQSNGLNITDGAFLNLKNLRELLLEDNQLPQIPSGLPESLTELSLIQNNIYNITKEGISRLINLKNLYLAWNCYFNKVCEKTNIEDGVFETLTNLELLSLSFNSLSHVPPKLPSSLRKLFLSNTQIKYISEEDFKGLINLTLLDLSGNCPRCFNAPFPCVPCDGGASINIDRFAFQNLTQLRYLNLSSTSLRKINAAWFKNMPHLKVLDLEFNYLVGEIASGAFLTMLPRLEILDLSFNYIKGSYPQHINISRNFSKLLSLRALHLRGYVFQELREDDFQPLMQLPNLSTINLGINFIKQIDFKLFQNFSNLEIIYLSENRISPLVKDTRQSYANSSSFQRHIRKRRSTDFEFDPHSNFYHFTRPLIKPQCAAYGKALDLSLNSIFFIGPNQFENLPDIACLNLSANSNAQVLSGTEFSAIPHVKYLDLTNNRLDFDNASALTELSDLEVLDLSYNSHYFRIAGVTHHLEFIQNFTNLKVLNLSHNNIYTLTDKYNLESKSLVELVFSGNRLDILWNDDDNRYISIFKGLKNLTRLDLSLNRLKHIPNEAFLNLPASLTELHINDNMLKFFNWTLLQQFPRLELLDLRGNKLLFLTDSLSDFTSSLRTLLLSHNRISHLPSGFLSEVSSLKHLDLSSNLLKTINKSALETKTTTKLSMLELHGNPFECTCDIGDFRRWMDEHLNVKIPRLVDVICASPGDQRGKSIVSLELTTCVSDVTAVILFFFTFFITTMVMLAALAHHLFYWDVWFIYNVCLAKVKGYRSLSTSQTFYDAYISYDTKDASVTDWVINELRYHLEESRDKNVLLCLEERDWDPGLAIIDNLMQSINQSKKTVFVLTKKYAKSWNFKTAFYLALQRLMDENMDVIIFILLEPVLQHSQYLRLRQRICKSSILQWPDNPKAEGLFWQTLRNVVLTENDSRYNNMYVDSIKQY
How it was run: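 Luciferase signal read after 6 h compound incubation at 37 °C in HEK293 cells carrying transiently transfected TLR7 or TLR8 (wild type or LRR2-deletion) and NFκB-luc. Values are lowest effective concentrations from quadruplicate dose-response curves, effect ≥2-fold above assay SD.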

Compound	TLR7-dIRR2_LEC [1]	EC50 [2]	TLR8-dIRR2_LEC [3]	TLR8-wt_LEC [4]
CCCCNc1nc(N)ncc1OCCOC [Compound 17]	0.34	710 nM	0.67	2.03
CCCCNc1nc(N)ncc1OCc1ccncc1 [Compound 18]	0.83	630 nM	0.85	1.87
C=CCCCCOc1cnc(N)nc1NCCCC [Compound 20]	0.79	1330 nM	2.87	10.21
CCCCNc1nc(N)ncc1OCCO [Compound 21]	1.61	3080 nM	0.64	2.69
CCCCNc1nc(N)ncc1OCc1cccnc1 [Compound 22]	0.31	250 nM	0.94	2.35
CCCCNc1nc(N)ncc1OCc1cccc(C(=O)OC)c1 [Compound 23]	0.26	10800 nM	1.45	2.55
CCCCNc1nc(N)ncc1OCCCO [Compound 24]	1.99	2750 nM	1.50	2.42
CCCCNc1nc(N)ncc1OCc1ccccc1-c1ccccc1 [Compound 25]	0.64	1550 nM	>25	>25
CCCCNc1nc(N)ncc1OCc1cc(C)no1 [Compound 26]	0.49	580 nM	1.52	3.90
CCCCNc1nc(N)ncc1OCCN1CCOCC1 [Compound 27]	0.78	1030 nM	0.64	5.36
CCCCNc1nc(N)ncc1OCCCC(N)=O [Compound 28]	2.47	1750 nM	6.99	9.18
CCCCNc1nc(N)ncc1OCCCC#N [Compound 29]	1.32	2970 nM	1.19	2.86
CCCCNc1nc(N)ncc1OCCN [Compound 30]	>25	9070 nM	1.16	6.44
CCCCNc1nc(N)ncc1OCc1cc(-c2ccc(F)cc2)on1 [Compound 33]	0.36	1480 nM	1.17	1.78
CCCCNc1nc(N)ncc1OCc1cn2ccccc2n1 [Compound 34]	0.06	50 nM	0.61	0.83
CCCCNc1nc(N)ncc1OCc1cc(-c2ccc(OC)cc2)no1 [Compound 35]	0.39	1500 nM	1.66	1.67

Compound	TLR7-dIRR2_LEC [1]	EC50 [2]	TLR8-dIRR2_LEC [3]	TLR8-wt_LEC [4]
CCCCNc1nc(N)ncc1OCc1cncn1C(C)c1ccccc1 (stereo not shown) [Compound 37]	0.04	120 nM	5.69	9.22
CCCCNc1nc(N)ncc1OCc1ccccc1OC(F)(F)F [Compound 43]	0.08	790 nM	1.66	8.22
CCCCNc1nc(N)ncc1OCc1ccc(C(=O)OC)cc1OC [Compound 44]	0.16	590 nM	1.96	3.11
CCCCNc1nc(N)ncc1OCc1occc1C(=O)OC [Compound 45]	0.17	170 nM	0.40	0.58
CCCCNc1nc(N)ncc1OCc1ccc(C(=O)OCC)o1 [Compound 46]	0.19	2510 nM	1.96	3.85
CCCCNc1nc(N)ncc1OCc1occc1C(=O)OCC [Compound 47]	0.20	330 nM	0.66	1.87
CCCCNc1nc(N)ncc1OCc1occ(C(=O)OC)c1C(=O)OC [Compound 49]	0.31	550 nM	2.07	3.72
CCCCNc1nc(N)ncc1OCc1cncn1-c1ccccc1C [Compound 50]	0.51	780 nM	>25	>25
CCCCNc1nc(N)ncc1OCc1cccc(C(F)(F)F)c1 [Compound 51]	0.58	500 nM	2.09	3.92
CCCCNc1nc(N)ncc1OCc1cc(C)on1 [Compound 52]	0.63	260 nM	1.65	3.61
CCCCNc1nc(N)ncc1OCc1cc(F)c(F)cc1OC [Compound 53]	0.64	600 nM	2.15	3.06
CCCCNc1nc(N)ncc1OCCOCCOC [Compound 61]	1.38	1910 nM	1.56	3.59
CCCCNc1nc(N)ncc1OCc1ccc(C(=O)O)cc1OC [Compound 67]	2.31	2430 nM	>24.59	>24.59
CCCCNc1nc(N)ncc1OC(C)c1ccccc1 (stereo not shown) [Compound 69]	3.75	6160 nM	2.22	6.43
CCCCNc1nc(N)ncc1Oc1ccccc1 [Compound 71]	>24.59	4960 nM	>24.59	>24.59
